Test results as given in US20240218022A1, “ANTI-VISTA MACROCYCLIC PEPTIDES AND COMPOSITIONS” (BRISTOL-MYERS SQUIBB COMPANY, priority 2022, published 2024).
Like-named read-outs stand apart in the source and are kept apart here. Positions of bridges follow the written chain, without caps; N, C: chain ends. Non-standard residues stand in square brackets, D forms with d. Residues, ends and D or L forms follow the SMILES beside them. 2Nal = N[C@@H](Cc1ccc2ccccc2c1)C(=O)O; Cit = NC(=O)NCCC[C@H](N)C(=O)O; Ahp(2) = CCCCC[C@H](N)C(=O)O; Tle = CC(C)(C)[C@H](N)C(=O)O; NHexGly = CCCCCCNCC(=O)O; Nle = CCCC[C@H](N)C(=O)O; Orn = NCCC[C@H](N)C(=O)O; Dab = NCC[C@H](N)C(=O)O

Target: T1, mouse VISTA (mVISTA) (Mus musculus, UniProt Q9D659)
T1 construct: expressed in transfected cells; host or cells: Human embryonic kidney 293T cells
T1 sequence (Q9D659 33-308): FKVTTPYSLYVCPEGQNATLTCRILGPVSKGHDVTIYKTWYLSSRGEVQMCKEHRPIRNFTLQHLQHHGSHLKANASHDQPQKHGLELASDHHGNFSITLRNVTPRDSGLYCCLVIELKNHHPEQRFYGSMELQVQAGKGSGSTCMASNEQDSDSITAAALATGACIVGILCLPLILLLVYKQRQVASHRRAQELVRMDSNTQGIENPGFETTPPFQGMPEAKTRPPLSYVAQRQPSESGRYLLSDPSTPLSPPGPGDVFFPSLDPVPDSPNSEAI
Experiment: Cell-Based Binding High-Content Assay For mVISTA (HC CBA mVISTA)
Details: read-out: HC CBA mVISTA IC50
How it was run: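 This high-content binding assay uses HEK293T cells expressing murine VISTA, measuring displacement of 2 nM biotinylated peptide by fluorescent streptavidin imaging. IC50 values come from four-parameter logistic fitting.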

[1] = 293T cells expressing mouse VISTA, competition with biotinylated peptide (2 nM)

| SMILES | IC50 [1] | IC50 |
| --- | --- | --- |
| CCCCCCN1CC(=O)N[C@@H](Cc2ccc(O)cc2)C(=O)N[C@@H](C(C)C)C(=O)NCC(=O)N[C@@H](CCCNC(=N)N)C(=O)N[C@@H](CC(C)C)C(=O)N[C@@H](CCCCC)C(=O)N2CCC[C@H]2C(=O)N[C@@H](C(C)C)C(=O)N[C@@H](CC(=O)O)C(=O)N[C@H](C(=O)N[C@@H](CO)C(=O)N[C@@H](CCN)C(=O)N[C@@H](CC(N)=O)C(=O)O)CSCC(=O)N[C@@H](Cc2ccc3ccccc3c2)C(=O)N[C@@H](Cc2ccc(O)cc2)C(=O)N[C@@H](CC(=O)O)C1=O [Example 1164] ({CH2CO}-[2Nal]YD[NHexGly]YVGRL[Ahp(2)]PVDCS[Dab]N-OH; thioether N-14) | 9.8 nM |  |
| CCCCCCN1CC(=O)N[C@@H](Cc2ccc(O)cc2)C(=O)N[C@@H](C(C)C)C(=O)NCC(=O)N[C@@H](CCCNC(=N)N)C(=O)N[C@@H](CC(C)C)C(=O)N[C@@H](CCCCC)C(=O)N2CCC[C@H]2C(=O)N[C@@H](C(C)C)C(=O)N[C@@H](CC(=O)O)C(=O)N[C@H](C(=O)N[C@@H](CO)C(=O)N[C@@H](CCCCN)C(=O)N[C@@H](CCC(N)=O)C(=O)O)CSCC(=O)N[C@@H](Cc2ccc3ccccc3c2)C(=O)N[C@@H](Cc2ccc(O)cc2)C(=O)N[C@@H](CC(=O)O)C1=O [Example 1165] ({CH2CO}-[2Nal]YD[NHexGly]YVGRL[Ahp(2)]PVDCSKQ-OH; thioether N-14) | 28.2 nM |  |
| CCCCCCN1CC(=O)N[C@@H](Cc2ccc(O)cc2)C(=O)N[C@@H](C(C)C)C(=O)NCC(=O)N[C@@H](CCCNC(=N)N)C(=O)N[C@@H](CC(C)C)C(=O)N[C@@H](CCCCC)C(=O)N2CCC[C@H]2C(=O)N[C@@H](C(C)C)C(=O)N[C@@H](CC(=O)O)C(=O)N[C@H](C(=O)N[C@@H](CO)C(=O)N[C@@H](CCN)C(=O)N[C@@H](CCC(N)=O)C(=O)O)CSCC(=O)N[C@@H](Cc2ccc3ccccc3c2)C(=O)N[C@@H](Cc2ccc(O)cc2)C(=O)N[C@@H](CC(=O)O)C1=O [Example 1166] ({CH2CO}-[2Nal]YD[NHexGly]YVGRL[Ahp(2)]PVDCS[Dab]Q-OH; thioether N-14) | 18.8 nM |  |
| CCCCCCN1CC(=O)N[C@@H](Cc2ccc(O)cc2)C(=O)N[C@@H](CCCC)C(=O)N[C@@H](CC(=O)O)C(=O)N[C@@H](CCCNC(=N)N)C(=O)N[C@@H](CC(C)C)C(=O)N[C@@H](CCCCC)C(=O)N2CCC[C@H]2C(=O)N[C@@H](C(C)C)C(=O)N[C@@H](CC(=O)O)C(=O)N[C@H](C(=O)N[C@@H](CC(=O)O)C(N)=O)CSCC(=O)N[C@@H](Cc2ccccc2)C(=O)N[C@@H](Cc2c[nH]c3ccccc23)C(=O)N[C@@H](CC(=O)O)C1=O [Example 1352] ({CH2CO}-FWD[NHexGly]Y[Nle]DRL[Ahp(2)]PVDCD-NH2; thioether N-14) |  | 12.3 nM |
| CCCCCCN1CC(=O)N[C@@H](Cc2ccc(O)cc2)C(=O)N[C@@H](CCCC)C(=O)N[C@@H](CC(=O)O)C(=O)N[C@@H](CCCN)C(=O)N[C@@H](CC(C)C)C(=O)N[C@@H](CCCCC)C(=O)N2CCC[C@H]2C(=O)N[C@@H](C(C)C)C(=O)N[C@@H](CC(=O)O)C(=O)N[C@H](C(=O)N[C@@H](CC(=O)O)C(N)=O)CSCC(=O)N[C@@H](Cc2ccccc2)C(=O)N[C@@H](Cc2c[nH]c3ccccc23)C(=O)N[C@@H](CC(=O)O)C1=O [Example 1353] ({CH2CO}-FWD[NHexGly]Y[Nle]D[Orn]L[Ahp(2)]PVDCD-NH2; thioether N-14) |  | 11.3 nM |
| CCCCCCN1CC(=O)N[C@@H](Cc2ccc(O)cc2)C(=O)N[C@@H](CCCCC)C(=O)N[C@@H](CC(N)=O)C(=O)N[C@@H](CCCNC(=N)N)C(=O)N[C@@H](CC(C)C)C(=O)N[C@@H](CCCCC)C(=O)N2CCC[C@H]2C(=O)N[C@@H](C(C)C)C(=O)N[C@@H](CO)C(=O)N[C@H](C(=O)NCC(N)=O)CSCC(=O)N[C@@H](Cc2ccccc2)C(=O)N[C@@H](Cc2c[nH]c3ccccc23)C(=O)N[C@@H](CC(=O)O)C1=O [Example 1354] ({CH2CO}-FWD[NHexGly]Y[Ahp(2)]NRL[Ahp(2)]PVSCG-NH2; thioether N-14) |  | 20.3 nM |
| CCCCCCN1CC(=O)N[C@@H](Cc2ccc(O)cc2)C(=O)N[C@@H](CCCC)C(=O)N[C@@H](CC(=O)O)C(=O)N[C@@H](CCCN)C(=O)N[C@@H](CC(C)C)C(=O)N[C@@H](CCCCC)C(=O)N2CCC[C@H]2C(=O)N[C@@H](C(C)C)C(=O)N[C@@H](CO)C(=O)N[C@H](C(=O)NCC(=O)O)CSCC(=O)N[C@@H](Cc2ccccc2)C(=O)N[C@@H](Cc2c[nH]c3ccccc23)C(=O)N[C@@H](CC(=O)O)C1=O [Example 1355] ({CH2CO}-FWD[NHexGly]Y[Nle]D[Orn]L[Ahp(2)]PVSCG-OH; thioether N-14) |  | 33.8 nM |
| CCCCCCN1CC(=O)N[C@@H](Cc2ccc(O)cc2)C(=O)N[C@@H](CCCC)C(=O)N[C@@H](CC(=O)O)C(=O)N[C@@H](CCCNC(=N)N)C(=O)N[C@@H](CC(C)C)C(=O)N[C@@H](CCCCC)C(=O)N2CCC[C@H]2C(=O)N[C@@H](C(C)C)C(=O)N[C@@H](CO)C(=O)N[C@H](C(=O)NCC(=O)O)CSCC(=O)N[C@@H](Cc2ccccc2)C(=O)N[C@@H](Cc2c[nH]c3ccccc23)C(=O)N[C@@H](CC(=O)O)C1=O [Example 1356] ({CH2CO}-FWD[NHexGly]Y[Nle]DRL[Ahp(2)]PVSCG-OH; thioether N-14) |  | 28.7 nM |
| CCCCCCN1CC(=O)N[C@@H](Cc2ccc(O)cc2)C(=O)N[C@@H](CCCCC)C(=O)N[C@@H](CC(N)=O)C(=O)N[C@@H](CCCNC(=N)N)C(=O)N[C@@H](CC(C)C)C(=O)N[C@@H](CCCCC)C(=O)N2CCC[C@H]2C(=O)N[C@@H](C(C)C)C(=O)N[C@@H](CO)C(=O)N[C@H](C(=O)NCC(=O)O)CSCC(=O)N[C@@H](Cc2ccccc2)C(=O)N[C@@H](Cc2c[nH]c3ccccc23)C(=O)N[C@@H](CC(=O)O)C1=O [Example 1357] ({CH2CO}-FWD[NHexGly]Y[Ahp(2)]NRL[Ahp(2)]PVSCG-OH; thioether N-14) |  | 31.6 nM |
| CCCCCCN1CC(=O)N[C@@H](Cc2ccc(O)cc2)C(=O)N[C@@H](CC(C)C)C(=O)NCC(=O)N[C@@H](CCCNC(=N)N)C(=O)N[C@@H](CC(C)C)C(=O)N[C@@H](CCCCC)C(=O)N2CCC[C@H]2C(=O)N[C@@H](C(C)C)C(=O)N[C@@H](CO)C(=O)N[C@H](C(=O)NCC(N)=O)CSCC(=O)N[C@@H](Cc2ccccc2)C(=O)N[C@@H](Cc2c[nH]c3ccccc23)C(=O)N[C@@H](CC(=O)O)C1=O [Example 1358] ({CH2CO}-FWD[NHexGly]YLGRL[Ahp(2)]PVSCG-NH2; thioether N-14) |  | 19.5 nM |
| CCCCCCN1CC(=O)N[C@@H](Cc2ccc(O)cc2)C(=O)N[C@@H](CC(C)C)C(=O)N[C@@H](CC(=O)O)C(=O)N[C@@H](CCCN)C(=O)N[C@@H](CC(C)C)C(=O)N[C@@H](CCCCC)C(=O)N2CCC[C@H]2C(=O)N[C@@H](C(C)C)C(=O)N[C@@H](CO)C(=O)N[C@H](C(=O)NCC(N)=O)CSCC(=O)N[C@@H](Cc2ccccc2)C(=O)N[C@@H](Cc2c[nH]c3ccccc23)C(=O)N[C@@H](CC(=O)O)C1=O [Example 1359] ({CH2CO}-FWD[NHexGly]YLD[Orn]L[Ahp(2)]PVSCG-NH2; thioether N-14) |  | 17.1 nM |
| CCCCCCN1CC(=O)N[C@@H](Cc2ccc(O)cc2)C(=O)N[C@@H](CCCC)C(=O)N[C@@H](CC(N)=O)C(=O)N[C@@H](CCCNC(=N)N)C(=O)N[C@@H](CC(C)C)C(=O)N[C@@H](CCCCC)C(=O)N2CCC[C@H]2C(=O)N[C@@H](C(C)C)C(=O)N[C@@H](CCCNC(=N)N)C(=O)N[C@H](C(=O)NCC(=O)O)CSCC(=O)N[C@@H](Cc2ccccc2)C(=O)N[C@@H](Cc2c[nH]c3ccccc23)C(=O)N[C@@H](CC(=O)O)C1=O [Example 1360] ({CH2CO}-FWD[NHexGly]Y[Nle]NRL[Ahp(2)]PVRCG-OH; thioether N-14) |  | 28.4 nM |
| CCCCCCN1CC(=O)N[C@@H](Cc2ccc(O)cc2)C(=O)N[C@@H](CCCC)C(=O)N[C@@H](CC(N)=O)C(=O)N[C@@H](CCCNC(=N)N)C(=O)N[C@@H](CC(C)C)C(=O)N[C@@H](CCCCC)C(=O)N2CCC[C@H]2C(=O)N[C@@H](C(C)C)C(=O)N[C@@H](CC(=O)O)C(=O)N[C@H](C(=O)NCC(=O)O)CSCC(=O)N[C@@H](Cc2ccccc2)C(=O)N[C@@H](Cc2c[nH]c3ccccc23)C(=O)N[C@@H](CC(=O)O)C1=O [Example 1361] ({CH2CO}-FWD[NHexGly]Y[Nle]NRL[Ahp(2)]PVDCG-OH; thioether N-14) |  | 5.2 nM |
| CCCCCCN1CC(=O)N[C@@H](Cc2ccc(O)cc2)C(=O)N[C@@H](CCCC)C(=O)N[C@@H](CC(N)=O)C(=O)N[C@@H](CCCNC(N)=O)C(=O)N[C@@H](CC(C)C)C(=O)N[C@@H](CCCCC)C(=O)N2CCC[C@H]2C(=O)N[C@@H](C(C)C)C(=O)N[C@@H](CC(=O)O)C(=O)N[C@H](C(=O)NCC(=O)O)CSCC(=O)N[C@@H](Cc2ccccc2)C(=O)N[C@@H](Cc2c[nH]c3ccccc23)C(=O)N[C@@H](CC(=O)O)C1=O [Example 1363] ({CH2CO}-FWD[NHexGly]Y[Nle]N[Cit]L[Ahp(2)]PVDCG-OH; thioether N-14) |  | 4 nM |
| CCCCCCN1CC(=O)N[C@@H](Cc2ccc(O)cc2)C(=O)N[C@@H](CCCC)C(=O)N[C@@H](CC(N)=O)C(=O)N[C@@H](CCCNC(=N)N)C(=O)N[C@@H](CC(C)C)C(=O)N[C@@H](CCCCC)C(=O)N2CCC[C@H]2C(=O)N[C@@H](C(C)(C)C)C(=O)N[C@@H](CO)C(=O)N[C@H](C(=O)NCC(N)=O)CSCC(=O)N[C@@H](Cc2ccccc2)C(=O)N[C@@H](Cc2c[nH]c3ccccc23)C(=O)N[C@@H](CC(=O)O)C1=O [Example 1364] ({CH2CO}-FWD[NHexGly]Y[Nle]NRL[Ahp(2)]P[Tle]SCG-NH2; thioether N-14) |  | 44 nM |
